Seven compounds from publication PMC8619673 (Cells, 2021) can be followed below.

Data set [1] in a line: in vitro. The following applies: for Papp at 18 h, 1 μM: PAMPA. How it is done: PAMPA was used to predict the penetration of the tested compounds across the BBB. […] The filter PVDF membrane (pore size 0.45 μm; Millipore) was coated with 4 μL of porcine polar brain lipid (20 mg/mL; Avanti Polar Lipids, Alabaster, AL, USA) in dodecane and the acceptor well filled with 200 μL of 5% DMSO in PBS. The filter plate was carefully placed on the donor plate to form a sandwich plate at room temperature for 18 h. After the permeation time, the filter and donor plates were separated. The concentration of the tested compound in the donor and acceptor wells was measured by an AB Sciex QTrap 5500 mass spectrometer (Applied Biosystems) linked to a 1200 HPLC system (Agilent Technologies, Palo Alto, CA, USA). The concentrations of the QC compounds were determined by a Tecan Infinite M200 Pro microplate reader (Switzerland). The effective permeability coefficient (Pe) was calculated as described. Each compound was tested in triplicate.

The next data set concerns AKT. The data set can be described thus: Western blot, p-AKT. The note with it: 5 µM; induced untreated 81%. Type of data set: cell-based, Human. How it is done:
(§1) Cellular proteins were prepared using a lysis buffer containing NaCl (150 mM), ethylene diamine tetraacetic acid (EDTA, 1 mM, pH8.0), Tris-HCl (50 mM, pH8.0), ethylene glycol tetraacetic acid (EGTA, 1 mM, pH8.0), sodium dodecyl sulfate (SDS, 0.1%), sodium deoxycholate (SD, 0.5%), Triton X-100 (1%), and protease (Sigma-Aldrich), and phosphatase (Abcam, Cambridge, MA, USA) inhibitor cocktails. After quantitation by protein assay kit (Bio-Rad, Hercules, CA, USA), 20 µg proteins were separated by SDS-polyacrylamide (10%) gel electrophoresis and transferred to polyvinylidene difluoride (PVDF) membranes (Sigma-Aldrich) using a Mini Trans-Blot cell (Bio-Rad). After blocking, the membrane was probed with anti-TRKB, anti-p-TRKB (Y516), anti-p-TRKB (Y817) (1:500; Cell Signaling, Danvers, MA, USA), anti-ERK, anti-p-ERK (T202/Y204) (1:1000; Cell Signaling), anti-AKT, anti-p-AKT (S473) (1:1000; Cell Signaling), anti-CREB, anti-p-CREB (S133) (1:1000; Millipore, Billerica, MA, USA), anti-BDNF, anti-BCL2 (1:500; Santa Cruz Biotechnology, Santa Cruz, CA, USA), anti-BAX (1:1000; Cell Signaling), anti-β-tubulin (1:500; Sigma-Aldrich), or anti-GAPDH (1:1000, MDBio, Taipei, Taiwan) antibody. The immune complexes were detected using goat anti-mouse or goat anti-rabbit IgG antibody conjugated with horseradish peroxidase (1:5000; GeneTex, Irvine, CA, USA) and chemiluminescent substrate (Millipore).

A further data set has as its system ERK. Put plainly: Western blot, p-ERK. Type of data set: cell-based, Human. The note with it: 5 µM; induced untreated 79%. On the procedure:
as §1

Another data set deals with Aβ-GFP SH-SY5Y cells. Put plainly: Neurite outgrowth analysis. The following applies: 5 µM. Type of data set: cell-based, Human. How it is done:
Aβ-GFP SH-SY5Y cells (6 × 10^4 cells) were seeded on a 24-well plate with retinoic acid (10 µM) on day 1. Tested coumarins (5 µM) and doxycycline (5 μg/mL) were added on day 2, as described. On day 8, the cells were washed with phosphate-buffered saline (PBS) twice and fixed in 4% paraformaldehyde at 4 °C for 15 min. Cells were permeabilized with Triton X-100 (0.1%) for 10 min, blocked with bovine serum albumin (3%) for 20 min, and stained with anti-neuronal TUBB3 antibody (1:1000; Covance, Princeton, NJ, USA) at 4 °C overnight. The next day, cells were washed with PBS twice and stained by a secondary donkey anti-rabbit Alexa Fluor® 555 antibody (1:1000; Thermo Fisher Scientific) and 4′,6-diamidino-2-phenylindole (DAPI; 0.1 µg/mL; Sigma-Aldrich) at room temperature for 1 h. Neuronal images from at least 60 individual fields (150–250 neurons per field) per experiment were captured at excitation 531/40 nm and emission 593/40 nm wavelengths using an ImageXpress micro confocal high-content imaging system (Molecular Devices). Neurite total length (μm) and numbers of process (the number of primary neurites originated from the cell body of a neuron) and branch (the number of secondary neurites extended from primary neurites) were analyzed using a MetaXpress neurite outgrowth application module (Molecular Devices). For each sample, around 6000 cells were analyzed in each of three independent experiments.
(§2) Lentiviral short hairpin RNA (shRNA) targeting TRKB (TRCN0000002243, TRCN0000002245, and TRCN0000002246) and a negative-scrambled control (TRC2.Void) were obtained from the National RNAi Core Facility, IMB/GRC, Academia Sinica (Taipei, Taiwan). As described, cells were plated on 6- or 24-well plates, with retinoic acid added on day 1. Cells were infected with lentivirus (multiplicity of infection, 3 for each shRNA), with polybrene (8 µg/mL; Sigma-Aldrich) on the next day. Cells were pretreated with tested compounds (5 µM) for 8 h after changing medium, followed by doxycycline on day 3. Cells were collected for further analysis on day 9. The hairpin sequences of targeting shRNA were below: • TRCN0000002243: 5’-[…]ctcgag[…]-3’ • TRCN0000002245: 5’-[…]ctcgagATGTT-[…]-3’ • TRCN0000002246: 5’-[…]ctcgag[…]-3’ • TRC2.Void: 5’-[…]ctcgag[…]-3’

Another data set has as its system CREB. Put plainly: Western blot, p-CREB. Type of data set: cell-based, Human. The following applies: 5 µM; induced untreated 81%. How it is done: as §1
The test system of another data set is BDNF. Put plainly: Western blot, BDNF. Type of data set: cell-based, Human. The following applies: 5 µM. On the procedure:
as §1

In the next data set the test system is TRKB. Put plainly: Western blot, TRKB and p-TRKB. Type of data set: cell-based, Human. The following applies: 5 µM. How it is done: as §1, §2
A further data set deals with BAX. Put plainly: Western blot, BAX. The note with it: 5 µM; induced untreated 182%. Type of data set: cell-based, Human. On the procedure: as §1
A further data set relates to BCL2. The data set can be described thus: Western blot, BCL2. Type of data set: cell-based, Human. The note with it: 5 µM; induced untreated 72%. On the procedure:
as §1

The target of the next data set is T1, Aβ42 peptide (Homo sapiens, UniProt P05067).
T1 construct: Aβ42 peptide (10 μM; Kelowna Int’l Scientific Inc., New Taipei City, Taiwan); purchased Kelowna Int’l Scientific Inc., New Taipei City, Taiwan
Put plainly: Thioflavin T aggregation assay. Type of data set: biochemical. The following applies: for Aβ aggregation inhibition (in words): compound 20 μM, thioflavin T assay. On the procedure:
To form Aβ aggregation, Aβ42 peptide (10 μM; Kelowna Int’l Scientific Inc., New Taipei City, Taiwan) was incubated with tested compounds (5–20 μM) in 150 mM NaCl and 20 mM Tris-HCl (pH8.0) at 37 °C for 48 h. Thioflavin T (10 μM; Sigma-Aldrich) was added to the Aβ mixture and incubated at room temperature for 5 min. The fluorescence intensity was recorded at 420 nm excitation and 485 nm emission by an FLx800 microplate reader (Bio-Tek, Winooski, VT, USA). Half maximal effective concentration (EC50) was estimated by a method of interpolation.

Data set [2] in a line: in vitro. Type of data set: cell-based. The note with it: human. How it is done:
To induce neuronal differentiation, 2 × 10^4 Aβ-GFP SH-SY5Y cells were seeded on a 96-well plate with retinoic acid (10 µM; Sigma-Aldrich). Cells were pretreated with tested compounds (0.2–5 µM) on day 2 for 8 h and then with doxycycline (5 μg/mL) to induce Aβ-GFP expression. Medium containing retinoic acid compound and doxycycline was refreshed every 2 days for 6 days. Then, cells were stained with Hoechst 33342 (0.1 µg/mL; Sigma-Aldrich) at 37 °C for 30 min. Cell images were recorded at 482/35 nm excitation and 536/40 nm emission wavelengths (ImageXpres Micro Confocal High-Content Imaging System; Molecular Devices, Sunnyvale, CA, USA), and analyzed by MetaXpress (Molecular Devices).

T1 sequence (P05067 672-713 limits assumed): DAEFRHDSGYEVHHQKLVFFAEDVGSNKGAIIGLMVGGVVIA

As for `NC(=O)N1c2ccccc2C=Cc2ccccc21` [Carbamazepine, carbamazepine], the Papp at 18 h, 1 μM is over 4 ×10⁻⁶ cm/s in the data set “in vitro [1]” (BBB Permeability Classification) and 9.85 ± 0.6 ×10⁻⁶ cm/s in the data set “in vitro [1]” (Measured Pe (effective permeability)).
On to `O=c1cc(-c2ccccc2)oc2c(O)c(O)ccc12` [7,8-DHF, reference compound], for which, in the data set on AKT, the “p-AKT (S473) protein level relative to uninduced cells (100%)” value is 91–110%. The “p-ERK (T202/Y204) protein level relative to uninduced cells (100%)” value in the data set on ERK is listed as 95–107%. In addition, the Neurite process number with Aβ-GFP SH-SY5Y cells (TRKB shRNA-infected cells, untreated 2.9) is 3.5; in the data set on Aβ-GFP SH-SY5Y cells (scrambled shRNA-infected cells, untreated 3.5), 3.9–4.0. Moreover, the Neurite branch number in the data set with Aβ-GFP SH-SY5Y cells (scrambled shRNA-infected cells, untreated 2.4) is 3.0–3.1. Moreover, the Neurite length with Aβ-GFP SH-SY5Y cells (scrambled shRNA-infected cells, untreated 25.3) is reported as 30.7–30.9 µm. Further, the “p-CREB (S133) protein level relative to uninduced cells (100%)” value with CREB is reported as 98–101%. Moreover, the “BDNF 14 kDa protein level relative to uninduced cells (100%)” value with BDNF (induced untreated 42%) is 124–140%. In addition, the “BDNF 32 kDa protein level relative to uninduced cells (100%)” value with BDNF (induced untreated 88%) is 113–119%. Moreover, the “BBB Permeability Classification” value in the data set “in vitro [1]” (PAMPA-BBB) was “High (Pe > 4 × 10^−6 cm/s (high))”. Besides, in the data set “in vitro [1]” (PAMPA-BBB, room temperature 18 h, triplicate), the “Measured Pe (effective permeability)” value is 6.32 ± 1.35 10^−6 cm/s. For the same compound, the “p-TRKB (Y516) protein level relative to uninduced cells (100%)” value in the data set with TRKB (induced untreated 40%) is recorded as 92–100%. The “p-TRKB (Y817) protein level relative to uninduced cells (100%)” value in the data set on TRKB (induced untreated 71%) was 94–108%. Moreover, the “TRKB expression relative to uninduced cells (100%)” value in the data set on TRKB (scrambled shRNA-infected Aβ-expressing cells, untreated 80%) is reported as 77–81%. For the same compound, in the data set on BAX, the “BAX protein level relative to uninduced cells (100%)” value stood at 126%. Moreover, in the data set on BCL2, the “BCL2 protein level relative to uninduced cells (100%)” value is on record as 104–116%.
As to `O=C(c1ccc(Cl)cc1)c1c(O)c2ccccc2oc1=O` [ZN010, 3-(4-chlorobenzoyl)-4-hydroxy-2H-chromen-2-one], at Aβ42 peptide, the “Aβ aggregation inhibition (in words)” value is listed as “did not inhibit Aβ aggregation”.
Take `CC(Oc1ccc2cc(C(=O)c3ccccc3)c(=O)oc2c1)C(=O)O` (stereo not shown) [ZN009, 2-((3-benzoyl-2-oxo-2H-chromen-7-yl)oxy)propanoic acid]: the “Aβ aggregation inhibition (in words)” value on Aβ42 peptide is given as “did not inhibit Aβ aggregation”.
Regarding `COc1ccc(C(=O)c2cc3ccc(O)cc3oc2=O)cc1` [ZN011, 7-hydroxy-3-(4-methoxybenzoyl)-2H-chromen-2-one], the “Aβ aggregation inhibition (in words)” value on Aβ42 peptide is listed as “did not inhibit Aβ aggregation”.
For the compound `COc1cc(/C=C/C(=O)CC(=O)/C=C/c2ccc(O)c(OC)c2)ccc1O` [curcumin, Curcumin, reference compound], the “Thioflavin T fluorescence (Aβ aggregation)” value at Aβ42 peptide (compound 20 µM, Aβ42 10 μM, 37 °C 2 days, 621 AU without compound, 151 AU without incubation) stood at 339 AU. Besides, the Neurite branch number in the data set on Aβ-GFP SH-SY5Y cells (induced untreated 1.8, uninduced 2.8) is given as 2.4–2.5. Moreover, the Neurite process number with Aβ-GFP SH-SY5Y cells (induced untreated 3.3, uninduced 4.4) is 4.2–4.3. Further, the Neurite total length in the data set on Aβ-GFP SH-SY5Y cells (induced untreated 23.9, uninduced 31.2) is reported as 29.1–29.3 μm. For the same compound, the viability at 6 days, 10 µM in the data set “in vitro [2]” is under 80%.
With lucifer yellow, the “Penetration of integrity marker (in words)” value in “in vitro [1]” (PAMPA-BBB, indicates good membrane integrity) is listed as “undetectable”. Further, the “% Transport” value in the data set “in vitro [1]” (PAMPA-BBB, integrity marker) was 0.00 (% Transport).
